Ends that are not written are not given here.
Assays:
[1] = tested on: pulmonary emboli; settings: literature, in words; cited from earlier work
[2] = tested on: thrombi; settings: literature, in words; cited from earlier work
[3] = tested on: femoral clot; assay: Comparison of short Arg-Gly-Asp peptides to disintegrins in dog, femoral clot (Example 7); assay type: in vivo; settings: T:B at least 4:1 in extremities, 9:1 in chest
Procedure: In this example of thrombi and emboli in a dog, the radioactivity target:background ratios were determined qualitatively by imaging and quantitatively by tissue sampling. […] Significant measurements presented in this study are the relative ratio of counts from the target tissue (thrombus and pulmonary emboli) to background entities (muscle, vessels blood etc.). […] Thrombus uptake data, such as the percent injected radiolabel dose per gram of thrombus (% id/g thrombus), thrombus-to-blood (=100×% id/g thrombus.div.%id/g blood) and thrombus-to-muscle ratios (=100×%id/g thrombus.div.%id/g muscle) were calculated from the tissue sample count data discussed below.
A female mongrel dog weighing 40 lbs was fasted overnight. The dog was sedated with an intramuscular injection of a mixture of ketamine hydrochloride and acepromazine maleate. General anesthesia was induced with intravenous pentobarbital (20 mg/kg). After shaving and washing the dog's skin, a 3-cm incision was made in the right groin area. Using blunt dissection, a segment of the femoral vein was located and freed from surrounding tissue for a length of 1 inch. […]
At 2 hours and 45 min. post injection, deep anesthesia was induced by intravenous administration of 30 mg/kg pentobarbital. […] Each sample was then placed in a counting tube and counted along with a saved aliquot of the injected dose as a standard, in a well counter. […]

[4] = tested on: pulmonary emboli; assay: Comparison of short Arg-Gly-Asp peptides to disintegrins in dog, pulmonary emboli (Example 7); assay type: in vivo; settings: PE; 4 hrs
Procedure: In this example of thrombi and emboli in a dog, the radioactivity target:background ratios were determined qualitatively by imaging and quantitatively by tissue sampling. Higher ratios are due to the increased target specificity of the radiolabel carrier. Significant measurements presented in this study are the relative ratio of counts from the target tissue (thrombus and pulmonary emboli) to background entities (muscle, vessels blood etc.). […] Thrombus uptake data, such as the percent injected radiolabel dose per gram of thrombus (% id/g thrombus), thrombus-to-blood (=100×% id/g thrombus.div.%id/g blood) and thrombus-to-muscle ratios (=100×%id/g thrombus.div.%id/g muscle) were calculated from the tissue sample count data discussed below.
To create a model of pulmonary embolus, an incision was made in the corresponding location on the left leg of the dog. […] The catheter and guide wire were withdrawn. The incision was closed with 2-0 silk.
Twenty-four hours after placement of the coils, anesthesia was induced as before. The urinary bladder was catheterized to collect urine. A large field of view gamma camera (General Electric, Milwaukee, Wis.) was positioned over the dog for an anterior view of the chest. The camera was fitted with a low-energy all-purpose collimator and was set to acquire the 159 keV photopeak of ^123 I with a 20% window. A Macintosh IIx computer was interfaced to the camera using a NucLear Mac A/D board and software (Scientific Imaging, Denver, Colo.). […] The ^125 -fibrinogen served as a control, since it has been studied previously in this dog model.
[…] A blood sample was drawn and 0.3 cc was transferred into each of two pre-weighed tubes. The animal was euthanized with intracardiac injection of KCl saturated solution. The vein segment containing the thrombus was carefully removed and dissected to separate the thrombus, coil, Dacron fibers and vessel wall. Each of these samples was placed on tared paper and weighed (wet weight). Similar size samples of control vessel (femoral vein from the control side) and skeletal muscle (from the thigh) were also collected and weighed. The "abnormal vessel" was the sample of vein from which the thrombus was dissected. The "control vessel" was the identical control vessel from the opposite leg. The control vessel Was not injured and therefore should not have significant uptake of radiotracer. Each sample was then placed in a counting tube and counted along with a saved aliquot of the injected dose as a standard, in a well counter. After counting, samples were held for decay of ^123 I and recounted in a lower energy window to collect the counts from ^125 I.
The imaging ability of the small peptides was compared to that of the ^123 I-labelled disintegrins in the Example 6 dog model. […]

Fibronectin
ability to image pulmonary emboli [1]: not been useful for imaging pulmonary emboli

Heparin [reference compound]
ability to image or detect thrombi [2]: not been found successful as an agent for imaging thrombi

^123 I-eristostatin: eristostatin, disintegrin from Eristocophis macmahoni, radioiodinated with ^123 I (QEEPCATGPCCRRCKFKRAGKVCRVARGDWNDDYCTGKSCDCPRNPWN; cysteine pairing not given here; also: radioiodinated with 123I, place not given here)
target:background ratios versus medically acceptable range for imaging [3]: medically significant background ratios for imaging of thrombi | AV:CV abnormal (injured) vessel:control vessel label ratio [4]: 1.2 | Percent Injected Dose Per Gram of Thrombus [4]: 0.1205 % id/g | T:B thrombus:blood ratio [4]: 8.6 | T:M thrombus:muscle ratio [4]: 40.6

streptokinase
ability to image or detect thrombi [2]: only with marginal success

urokinase
ability to image or detect thrombi [2]: only with marginal success

— patent US5380646A, “Thrombus detection using radiolabelled disintegrins” (Temple University of the Commonwealth System of Higher …, priority 1992, dated 1995)
